Experimental data from patent US12384786B2 (MINGHUI PHARMACEUTICAL (SHANGHAI) LIMITED, priority 2019, dated 2025).
Entries after “also recorded” stand apart in the source; their conditions may differ.

Assays:
[1] = system: TMD8 cells (Human diffuse large B lymphoma cells); experiment: CellTiter-Glo TMD8 inhibitory activity; format: cell-based; details: cultured in vitro
Text: CellTiter-Glo kit was used to test the TMD8 inhibitory activity of compounds of examples on Human diffuse large B lymphoma cells cultured in vitro. IC50 values were shown below.

[2] = system: subcutaneous xenograft TMD8 tumor; experiment: Subcutaneous transplantation tumor model of TMD8 cells in NOD/SCID mice; format: in vivo; details: for inhibitory effect on growth of subcutaneous transplanted TMD8 tumor / anti-tumor effect: orally 30 mg/kg once a day or 10→5 mg/kg twice a day; for tumor growth inhibition rate (TGI): after 22 days of administration
Description: In the subcutaneous transplantation tumor model of human diffuse large B lymphoma TMD8 cells in NOD/SCID mice, the inhibitory effect of example 1 on tumor growth was tested. Tumor growth and animal body weight were presented in FIG. 1 and FIG. 2 as followed. […] Therefore, the dose was adjusted to 5 mg/kg and continued to administrate for 14 days.

Full-length human BTK [3] = target: Full-length human BTK (Homo sapiens (Human), UniProt Q06187); experiment: BTK inhibitory activity, Reaction Biology Corporation kinase assay
Full-length human BTK (Homo sapiens (Human), UniProt Q06187), sequence (Q06187 whole entry): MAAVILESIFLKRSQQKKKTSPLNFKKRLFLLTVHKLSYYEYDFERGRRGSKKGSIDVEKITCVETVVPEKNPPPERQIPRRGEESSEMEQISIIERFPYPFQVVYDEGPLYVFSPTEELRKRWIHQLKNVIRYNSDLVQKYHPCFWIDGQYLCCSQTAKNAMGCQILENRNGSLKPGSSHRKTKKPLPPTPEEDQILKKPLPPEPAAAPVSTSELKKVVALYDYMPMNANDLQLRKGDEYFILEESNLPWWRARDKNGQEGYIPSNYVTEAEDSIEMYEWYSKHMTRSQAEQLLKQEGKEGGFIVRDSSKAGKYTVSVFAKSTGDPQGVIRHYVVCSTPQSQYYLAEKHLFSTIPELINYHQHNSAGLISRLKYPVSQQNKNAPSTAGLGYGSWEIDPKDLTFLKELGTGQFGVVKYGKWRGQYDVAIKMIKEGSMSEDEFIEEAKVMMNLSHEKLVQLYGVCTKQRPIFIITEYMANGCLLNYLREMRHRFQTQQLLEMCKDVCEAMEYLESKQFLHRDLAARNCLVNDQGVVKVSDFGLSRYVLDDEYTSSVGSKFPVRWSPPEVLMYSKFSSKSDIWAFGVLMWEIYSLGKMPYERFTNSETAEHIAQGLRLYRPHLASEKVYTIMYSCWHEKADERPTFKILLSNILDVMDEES

[4] = target: Full-length human BTK (C481S) (Homo sapiens (Human), UniProt Q06187, C481S); experiment: BTK (C481S) inhibitory activity, Reaction Biology Corporation kinase assay; details: read-out: IC50(nM) BTK(C481S); (b) ATP concentration 100 μM
Full-length human BTK (C481S), sequence (Q06187 whole entry C481S): as the sequence (Q06187 whole entry) above, with C481S counted along it

Full-length human BTK [5] = experiment: BTK inhibitory activity, Reaction Biology Corporation kinase assay; details: read-out: IC50 of standard; standard in BTK/BTK (C481S) assay, ATP 10 μM

| IC50 [1] | inhibition at 0.005 µM (Full-length human BTK [3]; read-out: BTK inhibitory rate(%)) | IC50 (Full-length human BTK [3]; read-out: IC50(nM) BTK, (b) ATP concentration 100 μM) | IC50 [4] | Compound | animal body weight ([2]; 10 mg/kg orally twice a day for 8 successive days) | effect on animal body weight ([2]; 30 mg/kg orally once a day) | influence on the body weight of animals ([2]; during administration, treatment groups overall) | inhibitory effect on growth of subcutaneous transplanted TMD8 tumor / anti-tumor effect [2] | inhibitory effect on growth of subcutaneous transplanted TMD8 tumor / anti-tumor effect ([2]; listed as example 1) | tumor growth inhibition rate (TGI) ([2]; orally once a day at 30 mg/kg) | tumor growth inhibition rate (TGI) ([2]; orally twice a day at 10→5 mg/kg) | IC50 (Full-length human BTK [5]) |
| --- | --- | --- | --- | --- | --- | --- | --- | --- | --- | --- | --- | --- |
| 20 nM | 60% | 8.1 nM | 3.4 nM | Nc1ncnc2c1c(-c1ccc(Oc3ccccc3)cc1)nn2[C@@H]1CCC[C@@H](O)C1 [Example 1, (1R,3R)-3-(4-amino-3-(4-phenoxyphenyl)-1h-pyrazole[3,4-d]pyrimidin-1-yl)cyclohex-1-ol] | decreased slightly | no significant effect | without showing obvious influence | obvious inhibitory effect | significant anti-tumor effect; also recorded: significantly inhibited the growth of tumor | 49.6% | 52.7% |  |
|  |  |  |  | CN[C@@H]1C[C@H]2O[C@@](C)([C@@H]1OC)n1c3ccccc3c3c4c(c5c6ccccc6n2c5c31)C(=O)NC4 [Starsporin, reference compound] |  |  |  |  |  |  |  | 3.94 nM |
